Experimental findings from patent US10294211B2, “Process for isolating and purifying ambrox” (Givaudan SA, priority 2015, dated 2019) are described below.

Test [1] can be described thus: Sensory analysis: odour threshold. An excerpt: (§1) Purpose: to carry out a sensory analysis of (−)-Ambrox and the compounds (II), (III) and (IV) formed in the crude material and in the crystallised material.
Test [2] can be described thus: Sensory analysis: GC-detection threshold and odour description. As to conditions: for GC-detection threshold / odour description: sensory analysis; for odour description: in words.
Excerpt: as §1

With `CC1(C)CCC[C@]2(C)[C@H]3CCO[C@]3(C)CC[C@@H]12` [(−)-Ambrox], in test [1] (sensory analysis), the “Odour Threshold” value is 0.2 ng/L.
In test [1] (as stated in the description), `C/C1=C/CCO[C@@]2(C)CCCC(C)(C)[C@@H]2CC1` [Compound (II)] showed a detection threshold greater than 500 ng/L. The molecule further showed a GC-detection threshold in test [2] greater than 500 ng. Also, the odour description entry is listed as ““odorless”” in test [2], “weaker odour” in test [2] (listed as II) and “practically odourless” in test [2] (listed as compound of formula (II)).
In the case of `CC1(C)CCC[C@@]2(C)[C@H]1CC[C@@]1(C)OCC[C@@H]21` [Compound (III)], the “odor weaker than (−)-Ambrox” value in test [2] (compared with (−)-Ambrox) was “about 10 fold”. Besides, the GC-detection threshold entry in test [2] is on record as “circa 2 ng”. Moreover, the odour description entry in test [2] (listed as Compound III) is reported as “essentially odorless”; in test [2] (listed as III) it was “weaker odour”. Besides, in test [2] (times higher than (−)-Ambrox), the “GC-threshold relative to (−)-Ambrox” value is given as “about 10 ×”.
For the molecule `CC1(C)CCC[C@@]2(C)[C@H]1CC[C@]1(C)OCC[C@@H]21` [Compound (IV)], in test [2], the GC-detection threshold fell in the range of 5 to 10 ng and the odour description entry is recorded as “weak, IsoE, woody”. In addition, the odour description entry in test [2] (listed as IV) is “weaker odour”.
